Values joined by “and” are separate entries in the source; they are usually repeats but may differ in a detail not shown here. Equal values may be shown once. Numbers after ± are expanded uncertainties.
Experiments:
[1] = Molar enthalpy of transition or fusion; details: Crystal; DSC

c1cnc2c(c1)ccc1ncccc12 [1,5-diazaphenanthrene]
Details	Molar enthalpy of transition or fusion [kcal/mol]
[1]	6.12 ± 0.454

Details	vapor or sublimation pressure
315 K, Crystal, Torsion effusion method	3.8e-05 ± 1.1e-05 kPa
315.1 K, Crystal, Torsion effusion method	3.8e-05 ± 1.1e-05 kPa
317.3 K, Crystal, Torsion effusion method	4.7e-05 ± 1.6e-05 kPa
317.9 K, Crystal, Torsion effusion method	5.7e-05 ± 1.8e-05 kPa
318.6 K, Crystal, Torsion effusion method	5.7e-05 ± 1.7e-05 kPa
319.5 K, Crystal, Torsion effusion method	6.7e-05 ± 2.4e-05 kPa
320.5 K, Crystal, Torsion effusion method	7.6e-05 ± 2.4e-05 kPa
320.8 K, Crystal, Torsion effusion method	7.6e-05 ± 2.9e-05 kPa
322.6 K, Crystal, Torsion effusion method	0.0001 ± 3e-05 kPa
322.9 K, Crystal, Torsion effusion method	0.00011 ± 4e-05 kPa
323 K, Crystal, Torsion effusion method	0.000114 ± 3.7e-05 kPa
323.8 K, Crystal, Torsion effusion method	0.00011 ± 4e-05 kPa
325.3 K, Crystal, Torsion effusion method	0.000142 ± 5.1e-05 kPa
325.6 K, Crystal, Torsion effusion method	0.00014 ± 5e-05 kPa
326 K, Crystal, Torsion effusion method	0.00015 ± 5e-05 kPa
326.2 K, Crystal, Torsion effusion method	0.00017 ± 6e-05 kPa
327.5 K, Crystal, Torsion effusion method	0.00021 ± 7e-05 kPa
328.2 K, Crystal, Torsion effusion method	0.000208 ± 7.2e-05 kPa and 0.00021 ± 7e-05 kPa
328.7 K, Crystal, Torsion effusion method	0.00023 ± 7e-05 kPa
329.1 K, Crystal, Torsion effusion method	0.00025 ± 8e-05 kPa
329.6 K, Crystal, Torsion effusion method	0.00026 ± 7e-05 kPa
330.5 K, Crystal, Torsion effusion method	0.00028 ± 0.0001 kPa
331 K, Crystal, Torsion effusion method	0.0003 ± 0.0001 kPa
331.5 K, Crystal, Torsion effusion method	0.00033 ± 0.0001 kPa
332 K, Crystal, Torsion effusion method	0.00032 ± 0.0001 kPa
333 K, Crystal, Torsion effusion method	0.00041 ± 0.00014 kPa
334.5 K, Crystal, Torsion effusion method	0.00044 ± 0.00017 kPa
334.9 K, Crystal, Torsion effusion method	0.00051 ± 0.00017 kPa
335 K, Crystal, Torsion effusion method	0.00047 ± 0.00017 kPa
336.2 K, Crystal, Torsion effusion method	0.00061 ± 0.00017 kPa
336.5 K, Crystal, Torsion effusion method	0.00055 ± 0.00015 kPa
337.7 K, Crystal, Torsion effusion method	0.00072 ± 0.00024 kPa
338.3 K, Crystal, Torsion effusion method	0.00072 ± 0.00019 kPa
339.3 K, Crystal, Torsion effusion method	0.00072 ± 0.00027 kPa
340 K, Crystal, Torsion effusion method	0.00095 ± 0.00024 kPa and 0.00091 ± 0.00024 kPa
340.4 K, Crystal, Torsion effusion method	0.00087 ± 0.00024 kPa
341.5 K, Crystal, Torsion effusion method	0.00112 ± 0.00043 kPa
342.6 K, Crystal, Torsion effusion method	0.00108 ± 0.00029 kPa
343.5 K, Crystal, Torsion effusion method	0.00127 ± 0.00036 kPa
380.1 K, Liquid, Rate of evaporation	0.023 ± 0.009 kPa
382.1 K, Liquid, Rate of evaporation	0.028 ± 0.011 kPa
385.6 K, Liquid, Rate of evaporation	0.032 ± 0.013 kPa
388.2 K, Liquid, Rate of evaporation	0.037 ± 0.015 kPa
390.3 K, Liquid, Rate of evaporation	0.043 ± 0.017 kPa
393.1 K, Liquid, Rate of evaporation	0.05 ± 0.02 kPa
395.6 K, Liquid, Rate of evaporation	0.057 ± 0.023 kPa
398.1 K, Liquid, Rate of evaporation	0.065 ± 0.026 kPa
403.1 K, Liquid, Rate of evaporation	0.086 ± 0.035 kPa
405.6 K, Liquid, Rate of evaporation	0.097 ± 0.039 kPa
408.1 K, Liquid, Rate of evaporation	0.113 ± 0.046 kPa
410.9 K, Liquid, Rate of evaporation	0.132 ± 0.054 kPa
413.1 K, Liquid, Rate of evaporation	0.145 ± 0.059 kPa
418.1 K, Liquid, Rate of evaporation	0.187 ± 0.076 kPa
423.1 K, Liquid, Rate of evaporation	0.24 ± 0.098 kPa
428.1 K, Liquid, Rate of evaporation	0.302 ± 0.12 kPa

Details	Triple point temperature [K]
Crystal, DSC	351.7 ± 2.1
